Results from patent US12234208B2, “3,4-dihydroxy-n-(1′-benzyl-2′-hydroxyethyl)-2-methylpyridine chloride, and synthesis and use thereof” (HANGZHOU ZEDE PHARMA-TECH CO. LTD., priority 2020, dated 2025).
“Also recorded” adds a separate entry of the source.

Key:
chronic MPTP mouse model [1] = assay: Traction test in chronic MPTP mouse model; assay type: in vivo, C57/BL mice
Excerpt: Injection was implemented every 3.5 days for 5 weeks. MPTP was converted into metabolite MPP^+ by monoamine oxidase B in glial cells after crossing the blood-brain barrier. Due to its high affinity for dopamine transporters, MPP^+ can easily enter dopaminergic neurons. By inhibiting the toxic effect of the mitochondrial complex I, it can cause oxidative stress and break intracellular calcium homeostasis, thus causing the apoptosis or necrosis of dopaminergic neurons, and finally achieving the goal of simulating PD. Probenecid was used to prevent the rapid clearance and excretion of MPTP in the brain and kidneys. In the process of model preparation, the amount of probenecid had no significant influence on the content of the dopamine in the brain. After modeling, the mice were administrated (p.o.) with the drug for one month. The two forepaws of the mice were suspended on a horizontal metal wire (5 mm in diameter and 30 cm from the ground), and the time for mice to fall from the metal wire was recorded, wherein a time over 60 seconds was counted as 60 seconds. The mice were trained twice a day before the test. […] Finally, the scores were calculated and the time for the mice to fall from the metal wire were recorded, wherein a time over 60 seconds was counted as 60 seconds.

chronic MPTP mouse model [2] = assay: Morris water maze test in chronic MPTP mouse model; assay type: in vivo, C57/BL mice; conditions: Compound A 100 mg/kg/d p.o. for one month; FIG. 2; 100 mg/kg/day
Experimental: A chronic MPTP (1-methyl-4-phenyl-1,2,3,6-tetrahydropyridine) mouse model was prepared to simulate PD. 250 mg/kg probenecid was intraperitoneally injected into the mice and then 25 mg/kg MPTP was intraperitoneally injected 0.5 hour later. Injection was implemented every 3.5 days for 5 weeks. MPTP was converted into metabolite MPP^+ by monoamine oxidase B in glial cells after crossing the blood-brain barrier. Due to its high affinity for dopamine transporters, MPP^+ can easily enter dopaminergic neurons. […]
The Morris water maze test can measure the changes in cognitive and memory ability. […] A camera with a display system was placed above the water maze, and the computer automatically tracked the timing and recorded the swimming track. […] The videos of the swimming path were recorded by the camera and computer, and the time of finding the platform from the entry point, namely the latency of escaping to the platform, was recorded. […] If they could not find and climb onto the platform in 90 seconds, the mice were artificially guided to find the platform and stay on the platform for 10 seconds, and the latency was recorded as 90 seconds. […] The latency was calculated on the average of four training sessions per day. […]

CCCN[C@H]1CCc2nc(N)sc2C1 [Pramipexol, reference compound]
suspension time compared with the chronic MPTP model (chronic MPTP mouse model [1]; Pramipexol 0.075 mg/kg/d p.o. for one month after modeling): decreased

Cc1c(O)c(O)cc[n+]1[C@@H](CO)Cc1ccccc1 [Compound A, (R)-3,4-dihydroxyl-N-(1′-benzyl-2′-hydroxyethyl)-2-methyl pyridine chloride]
suspension time compared with the chronic MPTP model control group (chronic MPTP mouse model [1]; Compound A 25 mg/kg/d p.o. for one month after modeling): no significant difference | suspension score compared with the chronic MPTP model control group (chronic MPTP mouse model [1]; Compound A 25 mg/kg/d p.o. for one month, FIG. 1): increased | suspension time compared with the chronic MPTP model control group (chronic MPTP mouse model [1]; Compound A 100 mg/kg/d p.o. for one month after modeling): no significant difference | muscle strength and coordination (conclusion) (chronic MPTP mouse model [1]; chronic MPTP mouse model, dose not given): tendency to improve muscle strength and coordination | cognitive function of PD model animals (water maze latency) (chronic MPTP mouse model [2]): may improve the cognitive function; also recorded: partially improve the cognitive function
